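Exposure lasted 48 hours, with cells grown in 96-well plates and compounds tested at five concentrations. Abbreviation: GI50, concentration required for 50% inhibition of growth. TGI is the concentration that stops growth completely.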
Key:
Assay in all cases: NCI anticancer screen, dose series, 48 h
MALME-3M melanoma = system: MALME-3M melanoma
CCRF-CEM leukemia = system: CCRF-CEM leukemia
HCT-116 colon = system: HCT-116 colon
SF-268 CNS = system: SF-268 CNS
SF-295 CNS = system: SF-295 CNS
SK-MEL-28 melanoma = system: SK-MEL-28 melanoma
A498 renal = system: A498 renal
ACHN renal = system: ACHN renal
NCI-H522 lung = system: NCI-H522 lung
HOP-62 NSCLC = system: HOP-62 NSCLC

SMILES | TGI (MALME-3M melanoma) [µM] | TGI (CCRF-CEM leukemia) [µM] | TGI (HCT-116 colon) [µM] | TGI (SF-268 CNS) [µM] | TGI (SF-295 CNS) [µM] | TGI (SK-MEL-28 melanoma) [µM] | TGI (A498 renal) [µM] | TGI (ACHN renal) [µM] | TGI (NCI-H522 lung) [µM] | TGI (HOP-62 NSCLC) [µM] | GI50 (CCRF-CEM leukemia) [µM] | GI50 (SF-268 CNS) [µM] | GI50 (ACHN renal) [µM] | GI50 (NCI-H522 lung) [µM]
COc1c(O)c(C=O)c2c(O)c(-c3c(C)cc4c(C(C)C)c(OC)c(O)c(C=O)c4c3O)c(C)cc2c1C(C)C | 18.8 | 37.6 | 5.39 | 23.5 | 17 | 22.7 | 24.7 | 8.05 | 6.56 | 9.18 | – | – | – | –
COc1ccc2c3c1OC1C(=O)C=CC4(CC2)N(C)CCC314 (centres undefined) | > 100 | 51.5 | 29.1 | 91 | > 100 | 66.1 | 58.7 | 73.9 | 33 | > 100 | – | – | – | –
Cc1ccc(OCC2OC(n3cnc4c(Cl)nc(N)nc43)CC2Oc2ccc(C)cc2)cc1 (centres undefined) | > 85.3 | > 100 | > 100 | > 100 | > 100 | > 100 | > 100 | 40 | 12.1 | > 52.5 | – | – | – | –
C[C@H](NC(=O)C(Cc1ccccc1)(Cc1ccc(O)cn1)NC(=O)c1ccccc1)c1ccccc1 (some centres undefined) | 37.6 | > 100 | 28.7 | 39.1 | 29 | 38.3 | 33.5 | 43.2 | 35.4 | 33.8 | – | – | – | –
CC(C)CNc1nc2ncnc(N)c2[nH]1 | > 100 | > 100 | > 100 | > 100 | > 100 | > 100 | > 100 | > 100 | > 100 | > 100 | – | – | – | –
CCCCOC(=O)C(NC(C(=O)OCCCC)c1cc(C(C)(C)C)c(O)c(C(C)(C)C)c1)c1cc(C(C)(C)C)c(O)c(C(C)(C)C)c1 (centres undefined) | > 100 | > 100 | > 100 | > 100 | > 100 | > 100 | > 100 | > 100 | > 100 | > 100 | – | – | – | –
C=C[C@@H](C)[C@H](NS(=O)(=O)c1ccc(C)cc1)C(=O)OCC | > 100 | > 100 | > 100 | > 100 | 63.4 | > 100 | > 100 | > 100 | 57.5 | > 100 | – | – | – | –
COC(=O)C1CCC(=S)N1C(=O)c1ccccc1 (centres undefined) | > 100 | > 100 | > 100 | > 100 | > 100 | > 100 | > 100 | > 100 | > 100 | > 100 | – | – | – | –
CN(C)c1ccc(/C(F)=C(F)/C(F)=C(F)/C(F)=C(\F)c2ccc(Br)cc2)cc1 | > 71.8 | > 78.8 | > 25.5 | > 100 | > 52.1 | > 100 | > 95.5 | > 100 | 27.1 | > 100 | – | – | – | –
CCCCCCCC/C=C\CCCCCCC/C=C1\C[C@](/C=C/C(=O)OC)(CO)OC1=O | 2.86 | > 23 | 6.26 | 4.4 | 14.1 | 3.38 | 22.7 | 7.9 | 8.61 | 9.18 | – | – | – | –
Cc1ccc([S@](=O)c2occc2C=O)cc1 | 8.45 | 4.4 | 9.64 | 14.9 | 32.4 | 9.02 | 32.3 | 28.7 | 31.6 | 35.2 | – | – | – | –
OCC(O)C(O)C(O)C(O)c1nc2ccc(Cl)cc2[nH]1 (centres undefined) | > 100 | > 100 | > 100 | > 100 | > 100 | > 100 | > 100 | > 100 | > 100 | > 100 | – | – | – | –
C=C(C(N)=O)c1ccc([N+](=O)[O-])o1 | 5.51 | 18.9 | 14.7 | 37.9 | > 100 | 12.7 | 25.7 | 12.2 | 4.24 | 46.8 | – | – | – | –
NC(=O)NNc1nc(-c2ccccc2)cs1 | > 100 | > 100 | > 100 | > 100 | > 100 | > 100 | > 100 | > 100 | > 100 | > 100 | – | – | – | –
NS(=O)(=O)c1ccc(/C=C/c2ccc(F)cc2)cc1 | > 100 | > 100 | 50.3 | > 100 | 78.6 | > 100 | > 100 | 19.4 | 27.6 | 65.9 | 62 | 20.5 | 2.97 | 4.81
Cc1csc(NC23CC4CC(CC(C4)C2)C3)[n+]1C(P(=O)([O-])O)P(=O)(O)O (centres undefined) | > 100 | > 100 | > 100 | > 100 | > 100 | > 100 | > 100 | > 100 | > 100 | > 100 | – | – | – | –
N#CC1(C#N)NC(c2cccs2)C(C#N)(C#N)NC1c1cccs1 (centres undefined) | > 100 | 64.3 | > 100 | > 100 | > 100 | > 100 | 74.6 | > 100 | 88.4 | > 100 | – | – | – | –
OC1(c2ccccc2)CCN(Cc2c[nH]c3ccccc23)CC1 | 52.4 | > 100 | > 100 | > 100 | > 100 | 56.9 | > 100 | > 100 | > 100 | > 100 | – | – | – | –
Nc1ccc(S(=O)(=O)c2ccc(NCN3C(=O)NC(=O)C(=O)C3=O)cc2)cc1 | > 100 | > 100 | > 100 | > 100 | > 100 | > 100 | > 100 | > 100 | > 100 | > 100 | – | – | – | –
CC(NC(=O)C(NC(=O)CNC(=O)OC(C)(C)C)C(C)C)C(=O)Oc1c(Cl)c(Cl)c(Cl)c(Cl)c1Cl (centres undefined) | 49.4 | > 100 | 31.2 | 65.2 | 34.3 | 71.8 | 45 | 58.9 | 45.2 | 35.7 | – | – | – | –

Reference: PubChem BioAssay (NCI)
